Experimental data as given in a compilation of properties of binary mixtures (doi:10.1007/s10953-008-9260-8).

Assay: xn = mol fraction of the nth substance listed
Settings: 101 kPa

CCCCCC[n+]1ccn(C)c1.F[B-](F)(F)F + CCCC[n+]1ccn(C)c1.F[B-](F)(F)F
viscosity [mPa·s]
Settings | 298.15 K | 299.15 K | 301.15 K | 302.15 K | 303.15 K | 304.15 K | 305.15 K | 307.15 K | 308.15 K
x2 = 0 | 209 | 197.3 | 175.8 | 165.9 | 157 | 148.6 | 140.7 | 126.7 | 120
x2 = 0.054 | 200.2 | 188.7 | 168.3 | 160.4 | 147.5 | 142.5 | 135.7 | – | 117.4
x2 = 0.103 | – | – | 164.5 | 156.8 | 147.1 | – | 132 | 119 | –
x2 = 0.2076 | 172.4 | 161.3 | 145 | 137.3 | 130.2 | 122.8 | 117.3 | 106.1 | 101
x2 = 0.2995 | 167.3 | 161.3 | 141.6 | 134.2 | 127.2 | 120.6 | 114.6 | – | 98.5
x2 = 0.3602 | 165.7 | 156.7 | 140.4 | – | – | 119.8 | – | 102.6 | –
x2 = 0.4383 | 158.7 | 149 | 133.4 | 126.3 | 119.7 | 113.7 | – | 97.4 | –
x2 = 0.5047 | 149.8 | 144 | 129.1 | 122.4 | 116.1 | – | 104.7 | 94.6 | 90
x2 = 0.555 | 144 | 135.9 | 122.2 | – | – | 104.4 | 99.3 | 90 | 85.9
x2 = 0.598 | 142.4 | 134.7 | 121.1 | 114.9 | 108.6 | 103.6 | – | 89.3 | 85.2
x2 = 0.809 | 122.3 | – | – | 99.2 | – | 89.9 | – | 77.7 | 74.5
x2 = 0.8917 | – | 109.5 | – | – | – | 85 | 81 | 73.6 | 70.3

CCCC[n+]1ccn(C)c1.COS(=O)(=O)[O-] + CCCC[n+]1ccn(C)c1.F[B-](F)(F)F
viscosity [mPa·s]
Settings | 298.15 K | 299.15 K | 301.15 K | 302.15 K | 303.15 K | 304.15 K | 305.15 K | 307.15 K | 308.15 K
x2 = 0 | 215 | – | 181.2 | – | 162.3 | 156.8 | 145.7 | 131.2 | 124.5
x2 = 0.1209 | 192.5 | – | – | 153.9 | 145.8 | 138.2 | – | 118.2 | –
x2 = 0.2142 | 188.2 | 177.6 | – | 147 | 142.2 | 134.8 | – | 115.2 | 109.5
x2 = 0.3057 | 180.2 | 170.3 | 152.3 | – | 136.7 | – | 123.2 | 111.2 | 105.9
x2 = 0.406 | 168.1 | 160.7 | 142.4 | 135 | – | 121.4 | 115 | 104 | –
x2 = 0.4358 | – | 151.3 | – | 129.3 | 122.4 | 116 | 110 | – | 94.5
x2 = 0.5118 | – | 147.4 | 132.1 | 125.1 | – | 112.7 | 107 | 96.8 | 92
x2 = 0.5412 | 149.5 | 143.6 | 128.6 | – | 115.8 | – | 104 | 93.9 | 89.6
x2 = 0.6026 | – | 138.4 | 124.1 | – | 111.4 | 105.7 | – | – | 86.8
x2 = 0.648 | 141.6 | 133.8 | 120 | – | 108 | 102.4 | 97.1 | 87.8 | 83.6
x2 = 0.6934 | 137.5 | 130 | – | 110.8 | 105.1 | – | 95.1 | 86.2 | 82
x2 = 0.7813 | 128.4 | 121.5 | – | 103.9 | 98.7 | 93.8 | 89.3 | 81.2 | 77.4
x2 = 0.9005 | 117.6 | 111.5 | 100.7 | 96 | 90.7 | 86.9 | – | 75.4 | 72.6
x2 = 0.9447 | – | 105.3 | 95.1 | 90.7 | 86.2 | 82 | – | 71.1 | –

CCCC[n+]1ccn(C)c1.F[B-](F)(F)F + CCCC[n+]1ccn(C)c1.F[P-](F)(F)(F)(F)F
x2 = 0
Settings | viscosity [mPa·s]
298.15 K | 107.2
302.15 K | 87.5
304.15 K | 79.6
305.15 K | 75.9
307.15 K | 69.1
308.15 K | 66.1

CCCCCC[n+]1ccn(C)c1.F[B-](F)(F)F + CC[n+]1ccn(C)c1.F[B-](F)(F)F
viscosity [mPa·s]
Settings | 298.15 K | 299.15 K | 301.15 K | 302.15 K | 303.15 K | 304.15 K | 305.15 K | 307.15 K | 308.15 K
x2 = 0 | – | – | 177.2 | – | 160.9 | 148.4 | 141.2 | 127.5 | 120.7
x2 = 0.0545 | 184.1 | 173.9 | – | 147.1 | 139.3 | 132.4 | 125.1 | 113.1 | 107.3
x2 = 0.1196 | 171.7 | – | 145.5 | – | 130.2 | 123.7 | 117.7 | 106 | 100.8
x2 = 0.1803 | 158.1 | – | – | 125.9 | – | 113.4 | 108 | 97.5 | –
x2 = 0.3145 | 128.3 | – | 109.7 | 104.1 | 99.1 | 94.2 | – | 81.4 | –
x2 = 0.4061 | – | 106 | 95.9 | 91.3 | 87 | 82.8 | 78.9 | 71.9 | 68.8
x2 = 0.446 | 104.5 | 99.3 | 89.9 | 85.6 | 81.6 | 77.7 | 74.3 | 67.8 | 64.8
x2 = 0.4938 | 96 | – | 82.7 | 78.6 | 75.1 | 71.7 | – | 62.6 | –
x2 = 0.5526 | 86.7 | 82.5 | 75 | 71.4 | – | 65.3 | 62.36 | 57.17 | 54.84
x2 = 0.6006 | 78.3 | – | 68.1 | 64.9 | – | 59.61 | – | 52.51 | –
x2 = 0.7059 | 64.3 | 61.64 | 56.52 | 54.22 | – | – | 47.93 | 44.34 | 42.66
x2 = 0.793 | – | – | 47.42 | 45.56 | – | 42.09 | – | – | –
x2 = 0.8516 | 48.1 | 46.22 | – | – | 39.58 | 38.13 | 36.71 | 34.2 | 33
x2 = 0.9022 | 43.3 | – | – | – | 35.77 | – | – | – | –
